Experimental data as given in US9725482B2, “Pentacyclic triterpenoid compound with modified structure and preparation method and use thereof” (Suzhou Botany Biomedicals Co., Ltd, priority 2013, dated 2017).

Experiments:
5-LOX = biological target: T1, 5-LOX (Homo sapiens, UniProt P09917); settings: Sailer et al., British J Pharmacology, 1996; cited from earlier work
T1 sequence (P09917 1-674): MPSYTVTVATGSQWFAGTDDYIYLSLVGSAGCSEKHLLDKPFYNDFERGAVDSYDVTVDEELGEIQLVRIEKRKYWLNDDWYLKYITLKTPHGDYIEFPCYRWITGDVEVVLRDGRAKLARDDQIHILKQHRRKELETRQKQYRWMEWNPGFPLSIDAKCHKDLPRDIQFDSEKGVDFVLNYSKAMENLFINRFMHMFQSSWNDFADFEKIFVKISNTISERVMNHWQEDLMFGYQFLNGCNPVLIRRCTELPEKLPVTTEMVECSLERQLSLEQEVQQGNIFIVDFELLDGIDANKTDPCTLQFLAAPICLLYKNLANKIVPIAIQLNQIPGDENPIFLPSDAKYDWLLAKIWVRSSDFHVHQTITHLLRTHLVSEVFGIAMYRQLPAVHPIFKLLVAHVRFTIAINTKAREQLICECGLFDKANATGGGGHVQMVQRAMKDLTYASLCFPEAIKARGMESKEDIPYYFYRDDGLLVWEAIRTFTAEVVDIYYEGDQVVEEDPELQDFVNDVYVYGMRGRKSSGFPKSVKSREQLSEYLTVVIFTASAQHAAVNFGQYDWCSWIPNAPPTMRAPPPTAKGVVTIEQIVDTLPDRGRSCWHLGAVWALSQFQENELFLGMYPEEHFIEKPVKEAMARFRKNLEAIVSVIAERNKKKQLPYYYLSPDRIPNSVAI

mouse psoriasis model [1] = assay: Treatment of mice psoriasis induced by imiquimod with gel formulation; format: in vivo, Balb/c mice; settings: 0.5% (w/w) gel, day 8 to day 14, topical
Protocol: (§1) Thirty age- and sex-matched Balb/c mice, 10 in the control group using a blank gel, 10 in the treatment group using AKBA gel and 10 in the treatment group using CKBA gel, were coated on their backs by imiquimod (62.5 mg/day for each mouse) for 7 days to establish mouse psoriasis model. At day 8 to day 14, the blank gel (Control), AKBA gel (0.5% (w/w)) and CKBA gel (0.5% (w/w)) were administered to the mice for treatment, respectively. Imiquimod was administered every two days to the back of the mice to maintain the skin inflammation. At day 15 pictures were took for the skin lesions of the psoriasis mice. Then the mice were sacrificed by cervical vertebra luxation and the skin from the skin lesion was cut and fixed by 4% paraformaldehyde to prepare HE pathological sections.
as §1, with “(0.2%” for “(0.5%”

HaCat keratinocytes = assay: In vitro inhibition of growth of skin keratinocyte (CCK-8); format: cell-based; settings: 24 hours; for concentration that completely inhibits the growth of the skin keratinocyte: HaCat cells, CCK-8
Protocol: HaCat keratinocytes (purchased from ATCC) in a logarithmic growth phase were inoculated in a 96-well plate, with 2×10^4 cells for each well. The compound of formula (II) and AKBA were added respectively in a concentration gradient. The total volume was […]. DMSO was added in the control group to a final concentration of 0.25%. […] culture medium was added into the blank control well. Each group had three parallel experiments. After cultured in a cell incubator for 24 hours, […] CCK-8 solution was added into each well. Then the plate was placed in the incubator for incubation at 37° C. and 5% CO2 for 4 hours. OD value was measured at 450 nm by a microplate reader. The inhibition rate was calculated by the following equation: Inhibition Rate=[1−(OD of the test group/OD of the control group)]×100%.

TH1 cells = assay: Inhibition of in vitro differentiation of TH1 cells from naive T cells (flow cytometry); format: cell-based, C57BL/6J mice; settings: 2 μm, 4 days, IFN-γ staining
Protocol: (§2) C57BL/6J mice of 6-8 week old were sacrificed by cervical vertebra luxation. The spleen was taken and ground. The cells were sieved to prepare a single-cell suspension. After dyeing on their surfaces by CD4-APC, CD25 PerCP-Cy 5.5 and CD62L-FITC, the cells were sorted by BD FACSAria III flow cytometry. The naïve T cells, i.e., CD4^+CD25^−CD62L^hi+ T cells, were used for induced differentiation of TH1, TH17 and Treg. A gradient of concentration of CKBA was added for incubation. Cells were collected after 4 days and then further cultured in incubator at 37° C. and 5% CO2 for 4-6 hours in 1640 complete culture medium supplemented with 750 ng/ml ionomycin and 50 ng/ml phorbol myristate acetate (PMA) and GolgiPlug. After suspension with PBS, the surface of the cell was stained by CD4-APC. After staining at 4° C. for 30 minutes, the cells were re-suspended once and then broke for 20 minutes at 4[…]. The cells were washed again by lotion and then stained by IFN-γ, IL-17A and FoxP3.

mouse psoriasis model [2] = assay: Treatment of mice psoriasis induced by imiquimod with gel formulation; format: in vivo, Balb/c mice; settings: 0.2% (w/w) gel, day 8 to day 14, topical
TH17 cells = assay: Inhibition of in vitro differentiation of TH17 cells from naive T cells (flow cytometry); format: cell-based, C57BL/6J mice; settings: 2 μm, 4 days, IL-17A staining
Protocol: as §2

Treg = assay: In vitro differentiation of Treg from naive T cells (flow cytometry); format: cell-based, C57BL/6J mice; settings: 2 μm, 4 days, FoxP3 staining
Protocol: as §2

| SMILES | 5-LOX inhibitory activity among boswellic acids (5-LOX) | mice psoriasis phenotype (mouse psoriasis model [1]) | number of the inflammatory cells in dermis (mouse psoriasis model [1]) | skin thickness (mouse psoriasis model [1]) | concentration that completely inhibits the growth of the skin keratinocyte (HaCat keratinocytes) [µM] | inhibition of in vitro differentiation of TH1 (TH1 cells) | mice psoriasis (mouse psoriasis model [2]) | number of the inflammatory cells in dermis (mouse psoriasis model [2]) | skin thickness (mouse psoriasis model [2]) | inhibition of in vitro differentiation of TH17 (TH17 cells) | treatment of mice psoriasis as compared to AKBA (mouse psoriasis model [1]) | inhibition on differentiation of Treg (Treg) | inhibiting division and proliferation of HaCat cells as compared to AKBA (HaCat keratinocytes; concentration gradient) |
| --- | --- | --- | --- | --- | --- | --- | --- | --- | --- | --- | --- | --- | --- |
| CC(=O)O[C@@H]1CC[C@@]2(C)C(CC[C@]3(C)C2C(=O)C=C2C4[C@@H](C)[C@H](C)CC[C@]4(C)CC[C@]23C)[C@@]1(C)C(=O)O (stereo partly drawn) [AKBA, Acetyl-11-keto-β-boswellic acid, reference compound] | the most obvious 5-LOX inhibitory activity | effectively relieve | significantly reduce | significantly reduce | 100 | – | – | – | – | – | – | – | – |
| C[C@H]1[C@H](C)CC[C@]2(C)CC[C@]3(C)C(=CC(=O)[C@@H]4[C@@]5(C)CC[C@@H](OC(=O)C6CCCCC6)[C@](C)(C(=O)O)[C@@H]5CC[C@]43C)[C@H]12 [CKBA, 3-o-α-cyclohexanoyl-11-keto-β-boswellic acid] | – | effectively relieve | significantly reduce | significantly reduce | 20 | very effectively inhibit | effectively cure | significantly reduce | significantly reduce | very effectively inhibit | more effectively treat | no inhibition | more effective |
